# Source: US5114937A, “Renin inhibiting nonpeptides” (Warner-Lambert Company, priority 1989, dated 1992)
# Target: T1, renin (Homo sapiens, UniProt P00797)
# T1 sequence (P00797 67-406): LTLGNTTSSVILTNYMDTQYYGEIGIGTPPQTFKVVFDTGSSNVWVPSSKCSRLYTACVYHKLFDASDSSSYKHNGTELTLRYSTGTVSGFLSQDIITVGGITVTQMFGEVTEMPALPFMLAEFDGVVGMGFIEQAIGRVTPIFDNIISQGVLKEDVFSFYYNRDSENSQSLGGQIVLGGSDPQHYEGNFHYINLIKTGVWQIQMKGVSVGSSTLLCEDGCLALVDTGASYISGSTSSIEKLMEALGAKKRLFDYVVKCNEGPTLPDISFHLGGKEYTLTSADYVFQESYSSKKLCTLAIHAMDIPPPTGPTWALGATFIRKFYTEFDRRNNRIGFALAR
# Assay: in vitro renin inhibitory activity, radioimmunoassay for angiotensin I
# Assay type: biochemical
# Settings: @ 1 × 10^-8 (molar); 2 hours at 37°
# Description: The effectiveness of the aforementioned compounds is determined by a test for in vitro renin inhibitory activity. This activity is determined by a standard radioimmunoassay for angiotensin I. ln this assay the enzyme, renin, incubated for 2 hours at 37° in the presence of a substrate, angiotensinogen, generates the product, angiotensin I. Test compounds are added to the incubation mixture. Relative activity is reported as the percent inhibition at the specified molar concentration or as the IC50, which is the molar concentration of test compound causing a 50% inhibition of the renin activity.
row,"In Vitro Activity, percent inhibition [%]",Structure (SMILES)
1,21,CC(C)C[C@H](O)[C@H](O)[C@H](CC1CCCCC1)NC(=O)CC1OC1[C@H](Cc1ccccc1)NC(=O)OC(C)(C)C (stereo partly drawn)
2,1,"CC(C)C[C@H](O)[C@H](O)[C@H](CC1CCCCC1)NC(=O)CCC(=O)[C@H](Cc1ccccc1)NC(=O)OCc1ccccc1 [ZPHE.psi.[COCH2 ]GLYCAD, Z-PHE.PSI.[COCH2]GLY-CAD]"

# Same assay, conditions: @ 3 × 10^-8 (molar); 2 hours at 37°
row,"In Vitro Activity, percent inhibition [%]",Structure (SMILES)
1,1,"CC(C)C[C@H](O)[C@H](O)[C@H](CC1CCCCC1)NC(=O)C/C=C/[C@H](Cc1ccccc1)NC(=O)OC(C)(C)C [BOCPHE.psi.[CHCH]GLYCAD, BOC-PHE.PSI.[E-CH=CH]GLY-CAD]"

# Same assay, conditions: @ 10^-6 (molar; also 1 × 10^-6); 2 hours at 37°
row,"In Vitro Activity, percent inhibition [%]",Structure (SMILES)
1,45,"CC(C)C[C@H](O)[C@H](O)[C@H](CC1CCCCC1)NC(=O)C(N)CC(O)[C@H](Cc1ccccc1)NC(=O)OC(C)(C)C (single isomer, unassigned) [drawing 42, BOC-PHE.PSI.[CHOHCH2 ]CH(NH2)CO-CAD]"
2,26,"CC(C)C[C@H](O)[C@H](O)[C@H](CC1CCCCC1)NC(=O)C(N)CC(O)[C@H](Cc1ccccc1)NC(=O)OC(C)(C)C (single isomer, unassigned) [drawing 43, BOC-PHE.PSI.[CHOHCH2 ]CH(NH2)CO-CAD]"
3,28,CC(C)C[C@H](O)[C@H](O)[C@H](CC1CCCCC1)NC(=O)CCC(O)[C@@H](N)Cc1ccccc1 (stereo partly drawn) [PHE.psi.[CHOHCH2 ]GLYCAD]

# Same assay, conditions: renin incubated 2 hours at 37° with angiotensinogen; values marked * = IC50; read-out: In Vitro Activity, IC50 (molar concentration causing a 50% inhibition of the renin activity)
row,Structure (SMILES),IC50 [nM]
1,"CC(C)C[C@H](O)[C@H](O)[C@H](CC1CCCCC1)NC(=O)CCC(O)[C@H](Cc1ccccc1)NC(=O)OC(C)(C)C (mixture of isomers) [BOCPHE.psi.[CHOHCH2 ]GLYCAD (Mixture of Diastereomers), BOC-PHE.PSI.[CHOHCH2 ]GLY-CAD (Mixture of Diastereomers)]",30
2,"CC(C)C[C@H](O)[C@H](O)[C@H](CC1CCCCC1)NC(=O)CCC(O)[C@H](Cc1ccccc1)NC(=O)OC(C)(C)C (single isomer, unassigned) [BOCPHE.psi.[CHOHCH2 ]GLYCAD (Slow Eluting Diastereomer), BOC-PHE.PSI.[CHOHCH2 ]GLY-CAD (Slow Isomer)]",15
3,"CC(C)C[C@H](O)[C@H](O)[C@H](CC1CCCCC1)NC(=O)CCC(O)[C@H](Cc1ccccc1)NC(=O)OCc1ccccc1 (single isomer, unassigned) [ZPHE.psi.[CHOHCH2 ]GLYCAD (Slow Eluting Diastereomer), Z-PHE.PSI.[CHOHCH2 ]GLY-CAD (Slow Isomer)]",200
4,"CC(C)C[C@H](O)[C@H](O)[C@H](CC1CCCCC1)NC(=O)CNC[C@H](Cc1ccccc1)NS(=O)(=O)N1CCOCC1 [SMOPHE.psi.[CH2 NH]GLYCAD, SMO-PHE.PSI.[CH2 NH]GLY-CAD]",2600
5,"CC(C)C[C@H](O)[C@H](O)[C@H](CC1CCCCC1)NC(=O)C=CC(O)[C@H](Cc1ccccc1)NS(=O)(=O)N1CCOCC1 (stereo partly drawn) [SMOPHE.psi.[CHOHCHCHCO]CAD, SMO-PHE.PSI.[CHOHCH=CHCO]CAD]",25

# The next lines start with the values.
row,IC50 [nM],Structure (SMILES)
1,240,"CC(C)C[C@H](O)[C@H](O)[C@H](CC1CCCCC1)NC(=O)CCC(O)[C@H](Cc1ccccc1)NC(=O)OCc1ccccc1 (mixture of isomers) [ZPHE.psi.[CHOHCH2 ]GLYCAD (Mixture of Diastereomers), Z-PHE.PSI.[CHOHCH2 ]GLY-CAD (Mixture of Diastereomers)]"
2,2.3,"CC(C)C[C@H](O)[C@H](O)[C@H](CC1CCCCC1)NC(=O)CCC(O)[C@H](Cc1ccccc1)NS(=O)(=O)N1CCOCC1 (single isomer, unassigned) [SMOPHE.psi.[CHOHCH2 ]GLYCAD (Isomer A), SMO-PHE.PSI.[CHOHCH2 ]GLY-CAD (Isomer A)]"
3,17,"CC(C)C[C@H](O)[C@H](O)[C@H](CC1CCCCC1)NC(=O)CCC(O)[C@H](Cc1ccccc1)NS(=O)(=O)N1CCOCC1 (single isomer, unassigned) [SMOPHE.psi.[CHOHCH2 ]GLYCAD (Isomer B), SMO-PHE.PSI.[CHOHCH2 ]GLY-CAD (Isomer B)]"
4,87,"CC(C)C[C@H](O)[C@H](O)[C@H](CC1CCCCC1)NC(=O)CCC(=O)[C@H](Cc1ccccc1)NS(=O)(=O)N1CCOCC1 [SMOPHE.psi.[COCH2 ]GLYCAD, SMO-PHE.PSI.[COCH2]GLY-CAD]"
